Data taken from patent US20070128217A1 (priority 2003, published 2007).

Tests used:
[1] = tested on: antibodies in sera from SARS patients (sera 1a, 1b, 2, 6, 37, 62, London, SARS-yellow, SARS-green); type: binding, human; set-up: Binding of serum 6 to linear peptides of protein X1 of SARS-CoV Urbani / Binding of serum 37 to linear peptides of protein X1 of SARS-CoV Urbani / Binding of serum 6 to looped/cyclic peptide (PEPSCAN-ELISA) / Binding of serum 37 to looped/cyclic peptide (PEPSCAN-ELISA) / Binding of serum 37 to looped/cyclic peptides of protein X1 of SARS-CoV Urbani / Binding of serum 6 to linear peptides of protein X2 / Binding of serum 37 to linear peptides of protein X2 / Binding of serum 37 to looped/cyclic peptides of protein X2 of SARS-CoV Urbani / Binding of serum 6 to linear peptides of protein M of SARS-CoV Urbani / Binding of serum 37 to linear peptides of protein M of SARS-CoV Urbani / Binding of serum 6 to looped/cyclic peptides of protein M of SARS-CoV Urbani / Binding of serum 37 to looped/cyclic peptides of protein M of SARS-CoV Urbani / Binding of serum 6 to linear peptides of protein X3 of SARS-CoV Urbani / Binding of serum 37 to linear peptides of protein X3 of SARS-CoV Urbani / Binding of serum 37 to looped/cyclic peptides of protein X3 of SARS-CoV Urbani / Binding of serum 6 to linear peptides of protein X4 of SARS-CoV Urbani / Binding of serum 37 to linear peptides of protein X4 of SARS-CoV Urbani / Binding of serum 37 to looped/cyclic peptides of protein X4 of SARS-CoV Urbani / Binding of serum 6 to linear peptides of protein X5 of SARS-CoV Urbani / Binding of serum 37 to linear peptides of protein X5 of SARS-CoV Urbani / Binding of serum 37 to looped/cyclic peptides of protein X5 of SARS-CoV Urbani / Binding of serum 6 to linear peptides of protein N of SARS-CoV Urbani / Binding of serum 37 to linear peptides of protein N of SARS-CoV Urbani / Binding of serum 6 to linear peptide (PEPSCAN-ELISA) / Binding of serum 1a to looped/cyclic peptides of protein N of SARS-CoV Urbani / Binding of serum 1b to looped/cyclic peptides of protein N of SARS-CoV Urbani / Binding of serum 2 to looped/cyclic peptides of protein N of SARS-CoV Urbani / Binding of serum 6 to looped/cyclic peptides of protein N of SARS-CoV Urbani / Binding of serum 37 to looped/cyclic peptides of protein N of SARS-CoV Urbani / Binding of serum 62 to looped/cyclic peptides of protein N of SARS-CoV Urbani / Binding of serum London to looped/cyclic peptides of protein N of SARS-CoV Urbani / Binding of serum SARS-green to looped/cyclic peptides of protein N of SARS-CoV Urbani: unit not given here
[2] = tested on: control sera (pooled serum of ten healthy LUMC hospital workers; commercial negative donor pooled serum from the Dutch bloodbank); type: binding, human; set-up: Binding of Control serum LUMC to linear peptides / Binding of Control serum Blood-bank to linear peptides / Binding of Control serum LUMC to looped peptides / Binding of Control Serum Blood-Bank to Looped peptides / Binding of Control serum LUMC to linear peptides of the protein M of SARS-CoV Urbani / Binding of Control serum Blood-bank to linear peptides of the protein M of SARS-CoV Urbani / Binding of Control serum LUMC to looped peptides of the protein M of SARS-CoV Urbani / Binding of Control Serum Blood-Bank to Looped peptides of the protein M of SARS-CoV Urbani: unit not given here
[3] = tested on: rabbit serum obtained by immunizing a rabbit with the SARS-CoV strain Frankfurt 1; type: binding; set-up: Binding of a rabbit serum to linear peptides / Binding of a rabbit serum to looped peptides / Rabbit serum linear peptides / Rabbit serum looped peptides / Binding of a rabbit serum to linear peptides of protein N of SARS-CoV Urbani (Rabbit serum linear peptides) / Binding of a rabbit serum to looped/cyclic peptides of protein N of SARS-CoV Urbani (Rabbit serum looped peptides): unit not given here

Row | Sequence | Binding of Control Serum Blood-Bank to Looped peptides [2] | Binding of Control serum Blood-bank to linear peptides [2] | Binding of Control serum LUMC to linear peptides [2] | Binding of Control serum LUMC to looped peptides [2] | Binding of serum 1a to linear peptides of protein M of SARS-CoV Urbani [1] | Binding of serum 1b to linear peptides of protein M of SARS-CoV Urbani [1] | Binding of serum 2 to linear peptides of protein M of SARS-CoV Urbani [1] | Binding of serum 6 to linear peptides of protein M of SARS-CoV Urbani [1] | Binding of serum 37 to linear peptides of protein M of SARS-CoV Urbani [1] | Binding of serum 62 to linear peptides of protein M of SARS-CoV Urbani [1] | Binding of serum London to linear peptides of protein M of SARS-CoV Urbani [1] | Binding of serum SARS-green to linear peptides of protein M of SARS-CoV Urbani [1] | Binding of serum SARS-yellow to linear peptides of protein M of SARS-CoV Urbani [1] | Recognition of the peptide by sera of SARS-CoV infected individuals, and form (linear, looped/cyclic) in which it is recognized [1] | Binding of Control Serum Blood-Bank to Looped peptides of the protein M of SARS-CoV Urbani [2] | Binding of Control serum Blood-bank to linear peptides of the protein M of SARS-CoV Urbani [2] | Binding of Control serum LUMC to linear peptides of the protein M of SARS-CoV Urbani [2] | Binding of Control serum LUMC to looped peptides of the protein M of SARS-CoV Urbani [2] | Rabbit serum linear peptides [3] | Rabbit serum looped peptides [3] | also measured
1 | NPLLYDANYFVCWHT | 0.7 | 0.6 | 0.6 | 0.6 | – | – | – | – | – | – | – | – | – | – | – | – | – | – | – | – | Binding of serum 1a to linear peptides of protein X1 of SARS-CoV Urbani [1]: 0.9; Binding of serum 1a to looped/cyclic peptide (PEPSCAN-ELISA) [1]: 0.5; Binding of serum 1b to linear peptides of protein X1 of SARS-CoV Urbani [1]: 0.6; Binding of serum 1b to looped/cyclic peptide (PEPSCAN-ELISA) [1]: 0.4; Binding of serum 2 to linear peptides of protein X1 of SARS-CoV Urbani [1]: 0.6; Binding of serum 2 to looped/cyclic peptide (PEPSCAN-ELISA) [1]: 0.4; Binding of serum 6 to linear peptides of protein X1 of SARS-CoV Urbani [1]: 0.5; Binding of serum 6 to looped/cyclic peptide (PEPSCAN-ELISA) [1]: 0.3; Binding of serum 37 to linear peptides of protein X1 of SARS-CoV Urbani [1]: 0.8; Binding of serum 37 to looped/cyclic peptide (PEPSCAN-ELISA) [1]: 0.5; Binding of serum 62 to linear peptides of protein X1 of SARS-CoV Urbani [1]: 0.7; Binding of serum 62 to looped/cyclic peptide (PEPSCAN-ELISA) [1]: 0.6; Binding of serum London to linear peptides of protein X1 of SARS-CoV Urbani [1]: 0.3; Binding of serum London to looped/cyclic peptide (PEPSCAN-ELISA) [1]: 0.2; Binding of serum SARS-green to linear peptides of protein X1 of SARS-CoV Urbani [1]: 0.4; Binding of serum SARS-green to looped/cyclic peptide (PEPSCAN-ELISA) [1]: 0.3; Binding of serum SARS-yellow to linear peptides of protein X1 of SARS-CoV Urbani [1]: 0.4; Binding of serum SARS-yellow to looped/cyclic peptide (PEPSCAN-ELISA) [1]: 0.4; Binding of a rabbit serum to linear peptides [3]: 0.2; Binding of a rabbit serum to looped peptides [3]: 0.6
2 | NRFLYIIKLVFLWLL | – | – | – | – | 0.7 | 0.5 | 0.5 | 0.3 | 0.7 | 0.7 | 0.3 | 0.3 | 0.1 | recognized in looped/cyclic form | 0.7 | 0.7 | 0.3 | 0.6 | 0.4 | 0.3 | –
3 | NRNRFLYIIKLVFLW | – | – | – | – | 0.7 | 0.4 | 0.6 | 0.3 | 0.7 | 0.7 | 0.3 | 0.3 | 0.1 | recognized in looped/cyclic form | 0.8 | 0.7 | 0.4 | 0.7 | 0.5 | 0.4 | –
4 | NRYRIGNYKLNTDHA | – | – | – | – | 0.8 | 0.6 | 0.5 | 0.3 | 0.5 | 0.6 | 0.2 | 0.2 | 0.1 | – | 0.7 | 0.2 | 0.2 | 0.7 | 0.2 | 0.3 | Binding of serum 1a to looped/cyclic peptides of protein M of SARS-CoV Urbani [1]: 0.8; Binding of serum 1b to looped/cyclic peptides of protein M of SARS-CoV Urbani [1]: 0.6; Binding of serum 2 to looped/cyclic peptides of protein M of SARS-CoV Urbani [1]: 0.5; Binding of serum 6 to looped/cyclic peptides of protein M of SARS-CoV Urbani [1]: 0.7; Binding of serum 37 to looped/cyclic peptides of protein M of SARS-CoV Urbani [1]: 0.6; Binding of serum 62 to looped/cyclic peptides of protein M of SARS-CoV Urbani [1]: 0.5; Binding of serum London to looped/cyclic peptides of protein M of SARS-CoV Urbani [1]: 0.4; Binding of serum SARS-green to looped/cyclic peptides of protein M of SARS-CoV Urbani [1]: 0.3; Binding of serum SARS-yellow to looped/cyclic peptides of protein M of SARS-CoV Urbani [1]: 0.9
5 | NTYSTAWLCALGKVL | 0.4 | 0.8 | 0.4 | 0.5 | – | – | – | – | – | – | – | – | – | – | – | – | – | – | 0.6 | 0.5 | Binding of serum 1a to linear peptides of protein X5 of SARS-CoV Urbani [1]: 0.7; Binding of serum 1a to looped/cyclic peptides of protein X5 of SARS-CoV Urbani [1]: 0.4; Binding of serum 1b to linear peptides of protein X5 of SARS-CoV Urbani [1]: 0.4; Binding of serum 1b to looped/cyclic peptides of protein X5 of SARS-CoV Urbani [1]: 0.3; Binding of serum 2 to linear peptides of protein X5 of SARS-CoV Urbani [1]: 0.5; Binding of serum 2 to looped/cyclic peptides of protein X5 of SARS-CoV Urbani [1]: 0.5; Binding of serum 6 to linear peptides of protein X5 of SARS-CoV Urbani [1]: 0.6; Binding of serum 6 to looped/cyclic peptides of protein X5 of SARS-CoV Urbani [1]: 1.1; Binding of serum 37 to linear peptides of protein X5 of SARS-CoV Urbani [1]: 0.6; Binding of serum 37 to looped/cyclic peptides of protein X5 of SARS-CoV Urbani [1]: 0.5; Binding of serum 62 to linear peptides of protein X5 of SARS-CoV Urbani [1]: 0.7; Binding of serum 62 to looped/cyclic peptides of protein X5 of SARS-CoV Urbani [1]: 0.6; Binding of serum London to linear peptides of protein X5 of SARS-CoV Urbani [1]: 0.6; Binding of serum London to looped/cyclic peptides of protein X5 of SARS-CoV Urbani [1]: 2.3; Binding of serum SARS-green to linear peptides of protein X5 of SARS-CoV Urbani [1]: 0.4; Binding of serum SARS-green to looped/cyclic peptides of protein X5 of SARS-CoV Urbani [1]: 0.3; Binding of serum SARS-yellow to linear peptides of protein X5 of SARS-CoV Urbani [1]: 0.3; Binding of serum SARS-yellow to looped/cyclic peptides of protein X5 of SARS-CoV Urbani [1]: 0.6
6 | NVPLRGTIVTRPLME | – | – | – | – | 0.8 | 0.6 | 0.4 | 0.3 | 0.7 | 0.8 | 0.3 | 0.4 | 0.1 | recognized in looped/cyclic form | 0.7 | 0.6 | 0.4 | 0.9 | 0.3 | 0.5 | –
